The values that follow come from publication PMC7108740, “Exploring the molecular structures that confer ligand selectivity for galanin type II and III receptors” (PLoS ONE, 2020).

Assay [1] concerns the target T1, GALR3 triple mutant L^100F, Y^103F, Y^107H (Homo sapiens, UniProt O60755, L100F/Y103F/Y107H).
T1 construct: expressed in transfected cells; host or cells: HEK293 cells stably expressing Gqi
T1 sequence (O60755 1-368 L100F/Y103F/Y107H): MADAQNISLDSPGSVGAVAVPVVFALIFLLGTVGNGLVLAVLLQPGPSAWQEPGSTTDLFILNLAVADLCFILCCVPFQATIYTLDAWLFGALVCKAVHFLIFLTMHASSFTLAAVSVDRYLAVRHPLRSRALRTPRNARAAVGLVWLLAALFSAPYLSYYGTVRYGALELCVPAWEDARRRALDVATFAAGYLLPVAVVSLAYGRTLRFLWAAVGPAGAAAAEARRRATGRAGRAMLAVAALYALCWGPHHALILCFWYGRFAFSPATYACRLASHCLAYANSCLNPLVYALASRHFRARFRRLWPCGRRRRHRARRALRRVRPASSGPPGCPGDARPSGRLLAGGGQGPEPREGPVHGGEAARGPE
The assay is described as follows: SRE-luc luciferase assay, GALR3 L100F,Y103F,Y107H. In kind it is cell-based. The note with it: GALR3 L^100F, SRE-luc in HEK293 Gqi cells, ligand 6 h, mean ± S.E., SEM. The text has this:
For domain swapping between GALR2 and GALR3, individual cDNA fragments of interest were amplified by polymerase chain reaction (PCR) with Pfu polymerase (ELPIS Biotech, Daejeon, Korea) and two specific primers, one corresponding to the 5' or 3' end of the GALR2 or GALR3 cDNA and the other to the region of overlap between the two receptors. The two resulting fragments, one from GALR2 and the other from GALR3, were subjected to a second round of PCR to generate the chimeric cDNAs. To construct single, double-, triple-, pentuple-, hextuple-, and septuple-mutant receptors, amino acids of GALR3 were substituted for the amino acids at the corresponding positions in GALR2 using PCR-based site-directed mutagenesis. All of the chimeric constructs were cloned into the pcDNA3 expression vector at HindⅢ and XbaⅠ sites. The DNA sequences of the chimeras were verified by automatic sequencing. HEK293 cells stably expressing the Gqi construct, which allows induction of Gq-dependent signaling pathways upon activation of a Gi-coupled receptor [14, 30], were maintained in Dulbecco's Modified Eagle's Medium (DMEM) in the presence of 10% fetal bovine serum and 1% penicillin and streptomycin. For all transfections, 200 ng DNA (100 ng receptor and 100 ng SRE-luc) mixed with lipofectamine 2000 was applied to 60–80% confluent cells on a multi-well plate according to the manufacturer's instructions (Invitrogen, Carlsbad, CA). For luciferase assays, HEK293 Gqi cells were seeded on 48-well plates at a density of 2.5 × 10^4 cells/well one day before transfection. […] The luciferase activity in 50 μl cell extract was determined using a luciferase assay system according to the standard protocol for the Synergy 2 Multi-Mode Microplate Reader (BioTek, Winooski, VT, USA). […] The concentrations of agonists that induced half-maximal stimulation (EC50) were calculated using the GraphPad PRISM5 software (GraphPad software, Inc., San Diego, CA). […]

In assay [2] the target is T2, GALR3 (Homo sapiens, UniProt O60755).
T2 sequence (O60755 1-368): T1 sequence (O60755 1-368 L100F/Y103F/Y107H) with F100L, F103Y, H107Y
The experiment in a line: SRE-luc luciferase assay, WT GALR3. In kind it is cell-based. On the set-up: host or cells: HEK293 cells stably expressing Gqi. As to conditions: SRE-luc in HEK293 Gqi cells, ligand 6 h, mean ± SE, at least three independent experiments, SEM. From the text: The pcDNA3.1 vector was purchased from Invitrogen (San Diego, CA, USA). The serum response element (SRE)-luciferase (SRE-luc) vector containing a single copy of the SRE (CCATATTAGG) conjugated with luciferase was purchased from Stratagene (La Jolla, CA, USA). The cDNAs for human GALR1, GALR2, and GALR3 were obtained from BRN SCIENCE, Inc. The cDNAs were inserted into the EcoRⅠ and XhoⅠ sites of pcDNA3.1.
HEK293 cells stably expressing the Gqi construct, which allows induction of Gq-dependent signaling pathways upon activation of a Gi-coupled receptor [14, 30], were maintained in Dulbecco's Modified Eagle's Medium (DMEM) in the presence of 10% fetal bovine serum and 1% penicillin and streptomycin. For all transfections, 200 ng DNA (100 ng receptor and 100 ng SRE-luc) mixed with lipofectamine 2000 was applied to 60–80% confluent cells on a multi-well plate according to the manufacturer's instructions (Invitrogen, Carlsbad, CA).
For luciferase assays, HEK293 Gqi cells were seeded on 48-well plates at a density of 2.5 × 10^4 cells/well one day before transfection. A mixture including 100 ng SRE-luc reporter construct, 100 ng expression plasmid, and lipofectamine 2000 reagent in diluted Opti-MEM (Gibco) was incubated at room temperature for 20 min and then added into each well according to the manufacturer's instructions (Invitrogen, CA, USA). Before exposure to the ligands, the cells were maintained in serum-free DMEM for 16–18 h. Approximately 48 h after transfection, the cells were treated with ligand for 6 h. The cells were then lysed by the addition of 100 μl lysis buffer. The luciferase activity in 50 μl cell extract was determined using a luciferase assay system according to the standard protocol for the Synergy 2 Multi-Mode Microplate Reader (BioTek, Winooski, VT, USA).
Data analysis was performed by non-linear regression with a sigmoidal dose-response curve. The concentrations of agonists that induced half-maximal stimulation (EC50) were calculated using the GraphPad PRISM5 software (GraphPad software, Inc., San Diego, CA). All data are presented as the mean ± standard error (SE) of at least three independent experiments.

Substitutions are numbered along the chain they refer to. Ends that are not written are not given here.

In general, EC50 refers to the concentration that produces a half-maximal response. NWTPQAALYLKGAQ-NH2 [A^7-SPX]: the EC50 in assay [1] was 64.6 ± 12.1 nM. Turning to NWTPQAMLYLKGPQ-NH2 [P^13-SPX], in assay [2], the EC50 came to 333 ± 55.7 nM. Regarding NWTPNAMLYLKGAQ-NH2 [N^5-SPX], the EC50 worked out at 83.2 ± 26.9 nM in assay [1] and 398 ± 96.1 nM in assay [2].

`CSCC[C@H](NC(=O)[C@H](C)NC(=O)[C@H](CCC(N)=O)NC(=O)[C@@H]1CCCN1C(=O)[C@@H](NC(=O)[C@H](Cc1c[nH]c2ccccc12)NC(=O)[C@@H](N)CC(N)=O)[C@@H](C)O)C(=O)N[C@@H](CC(C)C)C(=O)N[C@@H](Cc1ccc(O)cc1)C(=O)N[C@@H](CC(C)C)C(=O)N[C@@H](CCCCN)C(=O)NCC(=O)N[C@@H](C)C(=O)N[C@@H](CCC(N)=O)C(N)=O` [SPX, reference compound]: the EC50 in assay [1] is 30.9 ± 9.03 nM; in assay [2] it was 115 nM.
